pIC50: −log10 of the molar value.

For this assay, the target named is T1, Recombinant human BRD4 containing dual bromodomains (BRD4-BD12 (1-477)) (Homo sapiens, UniProt O60885).
T1 construct: Recombinant human BRD4 containing dual bromodomains (BRD4-BD12 (1-477)); made in house; host or cells: E. coli BL21-CodonPlus (DE3), modified pET vector
Briefly: BRD4 Alphascreen binding assay. An outline of the steps:
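AlphaScreen proximity between Ni-chelate-bound BRD4-BD12 (1-477) and streptavidin-captured H4 K5/K8/K12/K16-acetyl peptide measured after 1 h room-temperature compound incubation and 30 min with 7.5 μg/ml beads. Buffer: 50 mM HEPES pH 7.5, 50 mM NaCl, 0.01% BSA, 0.01% Triton X-100; data plate-normalized and four-parameter fit for IC50.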
On the technique in general: Bead proximity is the source of the signal in Alpha formats.
As usually defined, the pIC50 is the IC50 on a negative log10 scale, so that one unit is a factor of ten. For `CCOc1nc(C(=O)O)cc(C)c1-c1cn(C2CCOCC2)c2ncc(-c3c(C)noc3C)cc12` [P-0411, 5-(5-(3,5-dimethylisoxazol-4-yl)-1-(tetrahydro-2H-pyran-4-yl)-1H-pyrrolo[2,3-b]pyridin-3-yl)-6-ethoxy-4-methylpicolinic acid], the pIC50 was 3.00 to 5.10.
Regarding `CCOc1nc(C(=O)O)cc(C)c1-c1cn(-c2ccc(F)cc2F)c2ncc(-c3c(C)noc3C)cc12` [P-0412, 5-(1-(2,4-difluorophenyl)-5-(3,5-dimethylisoxazol-4-yl)-1H-pyrrolo[2,3-b]pyridin-3-yl)-6-ethoxy-4-methylpicolinic acid], the pIC50 was 5.10 to 6.00.
Consider `Cc1nnn(C)c1-c1cnc2c(c1)c(-c1ccc(C(=O)O)cc1OC1CC1)cn2C1CCOCC1` [P-0413, 3-cyclopropoxy-4-(5-(1,4-dimethyl-1H-1,2,3-triazol-5-yl)-1-(tetrahydro-2H-pyran-4-yl)-1H-pyrrolo[2,3-b]pyridin-3-yl)benzoic acid], for which the pIC50 was 5.10 to 6.00.
To `CCOc1cc(C(=O)O)nc(OCC)c1-c1cn(-c2ccccc2F)c2ncc(-c3c(C)noc3C)cc12` [P-0414, 5-(5-(3,5-dimethylisoxazol-4-yl)-1-(2-fluorophenyl)-1H-pyrrolo[2,3-b]pyridin-3-yl)-4,6-diethoxypicolinic acid] belongs 5.10 to 6.00.
To `CCOc1cc(C(=O)O)nc(OCC)c1-c1cn([C@@H](C)c2ccccn2)c2ncc(-c3c(C)noc3C)cc12` [P-0415, (S)-5-(5-(3,5-dimethylisoxazol-4-yl)-1-(1-(pyridin-2-yl)ethyl)-1H-pyrrolo[2,3-b]pyridin-3-yl)-4,6-diethoxypicolinic acid] belongs 3.00 to 5.10; to `CCOc1nc(C(=O)O)c(C)cc1-c1cn(C(C2CC2)C2CC2)c2ncc(-c3c(C)noc3C)cc12` [P-0416, 5-(1-(dicyclopropylmethyl)-5-(3,5-dimethylisoxazol-4-yl)-1H-pyrrolo[2,3-b]pyridin-3-yl)-6-ethoxy-3-methylpicolinic acid], 3.00 to 5.10.
`CCOc1nc(C(=O)O)cc(C)c1-c1cn(C(C2CC2)C2CC2)c2ncc(-c3c(C)noc3C)cc12` [P-0417, 5-(1-(dicyclopropylmethyl)-5-(3,5-dimethylisoxazol-4-yl)-1H-pyrrolo[2,3-b]pyridin-3-yl)-6-ethoxy-4-methylpicolinic acid]: the pIC50 is 3.00 to 5.10.
To `Cc1noc(C)c1-c1cnc2c(c1)c(-c1ccnc(C(=O)O)c1C)cn2C(C1CC1)C1CC1` [P-0418, 4-(1-(dicyclopropylmethyl)-5-(3,5-dimethylisoxazol-4-yl)-1H-pyrrolo[2,3-b]pyridin-3-yl)-3-methylpicolinic acid] belongs 6.00 to 10.00; to `Cc1noc(C)c1-c1cnc2c(c1)c(-c1ccnc(C(=O)O)c1C)cn2C1CCOCC1` [P-0419, 4-(5-(3,5-dimethylisoxazol-4-yl)-1-(tetrahydro-2H-pyran-4-yl)-1H-pyrrolo[2,3-b]pyridin-3-yl)-3-methylpicolinic acid], 6.00 to 10.00; to `CCOc1cc(C(=O)O)nc(OCC)c1-c1cn(C(C2CC2)C2CC2)c2ncc(-c3c(C)noc3C)cc12` [P-0420, 5-(1-(dicyclopropylmethyl)-5-(3,5-dimethylisoxazol-4-yl)-1H-pyrrolo[2,3-b]pyridin-3-yl)-4,6-diethoxypicolinic acid], 3.00 to 5.10.
For `CCOc1cc(C(=O)O)nc(OCC)c1-c1cn(-c2ncccc2C#N)c2ncc(-c3c(C)noc3C)cc12` [P-0421, 5-(1-(3-cyanopyridin-2-yl)-5-(3,5-dimethylisoxazol-4-yl)-1H-pyrrolo[2,3-b]pyridin-3-yl)-4,6-diethoxypicolinic acid], the pIC50 was 3.00 to 5.10.
Take `CCOc1cc(C(=O)O)nc(OCC)c1-c1cn(-c2ncccc2C(N)=O)c2ncc(-c3c(C)noc3C)cc12` [P-0422, 5-(1-(3-carbamoylpyridin-2-yl)-5-(3,5-dimethylisoxazol-4-yl)-1H-pyrrolo[2,3-b]pyridin-3-yl)-4,6-diethoxypicolinic acid]: the pIC50 was 3.00 to 5.10.
To `CCOc1cc(C(=O)O)nc(OCC)c1-c1cn(-c2ccc(C#N)cc2F)c2ncc(-c3c(C)noc3C)cc12` [P-0423, 5-(1-(4-cyano-2-fluorophenyl)-5-(3,5-dimethylisoxazol-4-yl)-1H-pyrrolo[2,3-b]pyridin-3-yl)-4,6-diethoxypicolinic acid] belongs 5.10 to 6.00; to `CCOc1cc(C(=O)O)nc(OCC)c1-c1cn(-c2cnc(C3CC3)nc2)c2ncc(-c3c(C)noc3C)cc12` [P-0424, 5-(1-(2-cyclopropylpyrimidin-5-yl)-5-(3,5-dimethylisoxazol-4-yl)-1H-pyrrolo[2,3-b]pyridin-3-yl)-4,6-diethoxypicolinic acid], 5.10 to 6.00; to `CCOc1cc(C(=O)O)nc(OCC)c1-c1cn(C2CCC(F)(F)CC2)c2ncc(-c3c(C)noc3C)cc12` [P-0425, 5-(1-(4,4-difluorocyclohexyl)-5-(3,5-dimethylisoxazol-4-yl)-1H-pyrrolo[2,3-b]pyridin-3-yl)-4,6-diethoxypicolinic acid], 3.00 to 5.10.
To `CCOc1cc(C(=O)O)ncc1-c1cn(C(C2CC2)C2CC2)c2ncc(-c3c(C)noc3C)cc12` [P-0427, 5-(1-(dicyclopropylmethyl)-5-(3,5-dimethylisoxazol-4-yl)-1H-pyrrolo[2,3-b]pyridin-3-yl)-4-ethoxypicolinic acid] belongs 5.10 to 6.00; to `CCOc1cc(C(=O)O)ncc1-c1cn(C2CCOCC2)c2ncc(-c3c(C)noc3C)cc12` [P-0428, 5-(5-(3,5-dimethylisoxazol-4-yl)-1-(tetrahydro-2H-pyran-4-yl)-1H-pyrrolo[2,3-b]pyridin-3-yl)-4-ethoxypicolinic acid], 6.00 to 10.00; to `CCOc1cc(C(=O)O)nc(OCC)c1-c1cn(-c2cn(C(F)F)nc2C)c2ncc(-c3c(C)noc3C)cc12` [P-0429, 5-(1-(1-(difluoromethyl)-3-methyl-1H-pyrazol-4-yl)-5-(3,5-dimethylisoxazol-4-yl)-1H-pyrrolo[2,3-b]pyridin-3-yl)-4,6-diethoxypicolinic acid], 3.00 to 5.10.
Take `CCOc1cc(C(=O)O)nc(OCC)c1-c1cn(-c2cn(CC)nc2C)c2ncc(-c3c(C)noc3C)cc12` [P-0430, 5-(5-(3,5-dimethylisoxazol-4-yl)-1-(1-ethyl-3-methyl-1H-pyrazol-4-yl)-1H-pyrrolo[2,3-b]pyridin-3-yl)-4,6-diethoxypicolinic acid]: the pIC50 is 5.10 to 6.00.
To `CCOc1cc(C(=O)O)nc(OCC)c1-n1cc(-c2ccc(F)cc2F)c2ncc(-c3c(C)noc3C)cc21` [P-0431, 5-(3-(2,4-difluorophenyl)-6-(3,5-dimethylisoxazol-4-yl)-1H-pyrrolo[3,2-b]pyridin-1-yl)-4,6-diethoxypicolinic acid] belongs 5.10 to 6.00.
To `CCOc1cc(C(=O)OC)nc(OCC)c1-c1cn(-c2ccc(F)cc2F)c2ncc(-c3c(C)noc3C)cc12` [P-0432, methyl 5-(1-(2,4-difluorophenyl)-5-(3,5-dimethylisoxazol-4-yl)-1H-pyrrolo[2,3-b]pyridin-3-yl)-4,6-diethoxypicolinate] belongs 3.00 to 5.10.
The figure for `CCOc1cc(C(=O)O)nc(OCC)c1-c1cn(C2CCN(C(=O)OC(C)(C)C)CC2)c2ncc(-c3c(C)noc3C)cc12` [P-0433, 5-(1-(1-(tert-butoxycarbonyl)piperidin-4-yl)-5-(3,5-dimethylisoxazol-4-yl)-1H-pyrrolo[2,3-b]pyridin-3-yl)-4,6-diethoxypicolinic acid] is 3.00 to 5.10.
For `Cc1noc(C)c1-c1cnc2c(c1)c(C1CCC(C(=O)O)CC1)cn2-c1ccc(F)cc1F` (stereo not drawn) [P-0434, 4-(1-(2,4-difluorophenyl)-5-(3,5-dimethylisoxazol-4-yl)-1H-pyrrolo[2,3-b]pyridin-3-yl)cyclohexane-1-carboxylic acid], the pIC50 is 5.10 to 6.00.
The figure for `CCOc1cc(C(=O)O)nc(OCC)c1-c1cn(C2CCN(S(C)(=O)=O)CC2)c2ncc(-c3c(C)noc3C)cc12` [P-0435, 5-(5-(3,5-dimethylisoxazol-4-yl)-1-(1-(methylsulfonyl)piperidin-4-yl)-1H-pyrrolo[2,3-b]pyridin-3-yl)-4,6-diethoxypicolinic acid] is 3.00 to 5.10; for `CCOc1cc(C(=O)O)nc(OCC)c1-c1cn(-c2cccnc2)c2ncc(-c3c(C)noc3C)cc12` [P-0436, 5-(5-(3,5-dimethylisoxazol-4-yl)-1-(pyridin-3-yl)-1H-pyrrolo[2,3-b]pyridin-3-yl)-4,6-diethoxypicolinic acid] it is 5.10 to 6.00.
To `Cc1noc(C)c1-c1cnc2c(c1)c(-c1ccc(CC(=O)O)cc1F)cn2-c1ccc(F)cc1F` [P-0437] belongs 5.10 to 6.00.
As for `Cc1noc(C)c1-c1cnc2c(c1)c(-c1ccc(CC(=O)O)cc1)cn2-c1ccc(F)cc1F` [P-0438, 2-(4-(1-(2,4-difluorophenyl)-5-(3,5-dimethylisoxazol-4-yl)-1H-pyrrolo[2,3-b]pyridin-3-yl)phenyl)acetic acid], the pIC50 was 3.00 to 5.10.
The figure for `Cc1noc(C)c1-c1cnc2c(c1)c(-c1c(Cl)cc(C(=O)O)cc1OC(F)(F)F)cn2-c1cccnn1` [P-0439, 3-chloro-4-(5-(3,5-dimethylisoxazol-4-yl)-1-(pyridazin-3-yl)-1H-pyrrolo[2,3-b]pyridin-3-yl)-5-(trifluoromethoxy)benzoic acid] is 6.00 to 10.00; for `COC(=O)c1cc(Cl)c(-c2cn(-c3ccc(C4CC4)nc3)c3ncc(-c4c(C)noc4C)cc23)c(OC(F)(F)F)c1` [P-0440, methyl 3-chloro-4-(1-(6-cyclopropylpyridin-3-yl)-5-(3,5-dimethylisoxazol-4-yl)-1H-pyrrolo[2,3-b]pyridin-3-yl)-5-(trifluoromethoxy)benzoate] it is 3.00 to 5.10.
The figure for `Cc1noc(C)c1-c1cnc2c(c1)c(-c1c(Cl)cc(C(=O)O)cc1OC(F)(F)F)cn2-c1ccc(C2CC2)nc1` [P-0441, 3-chloro-4-(1-(6-cyclopropylpyridin-3-yl)-5-(3,5-dimethylisoxazol-4-yl)-1H-pyrrolo[2,3-b]pyridin-3-yl)-5-(trifluoromethoxy)benzoic acid] is 6.00 to 10.00.

For the origin of these results see US11446287B2, “Compounds and methods for EP300 or CBP modulation and indications therefor” (Opna Immuno-Oncology SA, priority 2019, dated 2022).
